For series [1] the following is noted: Liquid.
A short description of series [2]: refractive index (Na D-line) (dimensionless). Particulars: 298.15 K; 101.33 kPa; Liquid; Standard Abbe refractometry.

Numbers after ± are expanded uncertainties.

Take `Cc1ccc(C)cc1` [1,4-dimethylbenzene]: in series [1] (410 K), the vapor or sublimation pressure (commonly the pressure of vapour in equilibrium with the condensed phase) was found to be 97.3 ± 1.6 kPa. For the same compound, in series [2], the refractive index (usually the speed of light in vacuum divided by its phase velocity in the sample) came out at 1.49325 ± 0.00075.
For the compound `CCCCO` [butan-1-ol], the “vapor or sublimation pressure” value in series [1] (389.5 K) was 97.3 ± 1.6 kPa. In series [2], the refractive index is recorded as 1.3973 ± 0.0008.
